# Assays:
# [1] = target: T1, Bombyx mori EcR (VP16 fusion, CVBE switch construct) (Bombyx mori, UniProt P49881); test: Z3 Assay (HEK-293 cells with CVBE and 6XEcRE LacZ, β-galactosidase reporter); conditions: for Fold Induction, Z3 Assay, 3.3 uM: 3.3 uM ligand; for Fold Induction, Z3 Assay, 3.3 uM / Fold Induction, Z3 Assay, 33 uM: ligand treated / DMSO treated cells; for Fold Induction, Z3 Assay, 3.3 uM / Fold Induction, Z3 Assay, 33 uM / EC50: average of two wells; for Fold Induction, Z3 Assay, 33 uM: 33 uM ligand; for Z3 assay Rel Max FI: maximum fold induction at any concentration relative to that of GS-E ligand; for Z3 assay Rel Max FI / EC50: HEK-293 Z3 cells; for EC50: read-out: Z3 assay EC50, β-galactosidase reporter
# T1 sequence (P49881 86-606): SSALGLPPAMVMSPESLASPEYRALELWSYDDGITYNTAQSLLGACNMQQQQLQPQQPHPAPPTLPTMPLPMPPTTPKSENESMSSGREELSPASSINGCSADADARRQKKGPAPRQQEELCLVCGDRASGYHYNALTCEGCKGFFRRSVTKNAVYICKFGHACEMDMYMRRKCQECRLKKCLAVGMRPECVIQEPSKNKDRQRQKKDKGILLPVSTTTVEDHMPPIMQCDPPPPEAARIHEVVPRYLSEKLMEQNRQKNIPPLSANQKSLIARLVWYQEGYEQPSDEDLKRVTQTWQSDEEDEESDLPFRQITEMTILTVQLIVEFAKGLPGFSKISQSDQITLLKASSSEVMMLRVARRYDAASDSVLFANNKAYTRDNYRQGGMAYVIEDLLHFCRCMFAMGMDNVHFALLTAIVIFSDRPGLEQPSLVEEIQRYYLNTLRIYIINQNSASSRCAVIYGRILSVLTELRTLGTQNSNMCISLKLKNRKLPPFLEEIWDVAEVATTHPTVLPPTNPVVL
# T1 sequence (P19793 1-462 partner): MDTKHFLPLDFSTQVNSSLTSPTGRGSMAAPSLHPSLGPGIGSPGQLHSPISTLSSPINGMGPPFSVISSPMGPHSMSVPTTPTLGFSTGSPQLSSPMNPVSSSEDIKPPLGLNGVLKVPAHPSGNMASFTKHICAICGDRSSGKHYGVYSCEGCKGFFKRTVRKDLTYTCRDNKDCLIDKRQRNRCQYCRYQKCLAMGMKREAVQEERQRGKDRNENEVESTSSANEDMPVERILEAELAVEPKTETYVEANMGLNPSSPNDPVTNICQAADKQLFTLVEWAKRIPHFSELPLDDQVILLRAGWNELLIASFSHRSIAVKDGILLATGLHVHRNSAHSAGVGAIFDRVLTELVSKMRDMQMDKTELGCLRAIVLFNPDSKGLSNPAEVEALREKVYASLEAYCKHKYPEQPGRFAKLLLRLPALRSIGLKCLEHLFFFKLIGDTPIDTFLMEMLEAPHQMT
# Description: Dr. F. Gage provided a population of stably transformed cells containing CVBE and 6XEcRE as described in Suhr, S. T., Gil, E. B., Senut M. C., Gage, F. H. (1998) Proc. Natl. Acad. Sci. USA 95, 7999-804. Human 293 kidney cells, also referred to as HEK-293 cells, were sequentially infected with retroviral vectors encoding first the switch construct CVBE, and subsequently the reporter construct 6XEcRE Lac Z. The switch construct contained the coding sequence for amino acids 26-546 from Bombyx mori EcR (BE) (Iatrou) inserted in frame and downstream of the VP16 transactivation domain (VBE). A synthetic ATG start codon was placed under the control of cytomegalovirus (CVBE) immediate early promoter and flanked by long terminal repeats (LTR). The reporter construct contained six copies of the ecdysone response element (EcRE) binding site placed upstream of LacZ and flanked on both sides with LTR sequences (6XEcRE).
# Dilution cloning was used to isolate individual clones. Clones were selected using 450 ug/mL G418 and 100 ng/mL puromycin. Individual clones were evaluated based on their response in the presence and absence of test ligands.
# Human 293 kidney cells stably transformed with CVBE and 6XEcRE LacZ were maintained in Minimum Essential Medium (Mediates, 10-010-CV) containing 10% FBS (Life Technologies, 26140-087), […] G418 (Mediates, 30-234-CR), and […] (Sigma, P-7255), at 37° C. in an atmosphere containing 5% CO2 and were subculture when they reached 75% confluence.
# Z3 cells were seeded into 96-well tissue culture plates at a concentration of 2.5×10^3 cells per well and incubated at 37° C. in 5% CO2 for twenty-four hours. Stock solutions of ligands were prepared in DMSO. Ligand stock solutions were diluted 100 fold in media and 50 μL of this diluted ligand solution ([…]) was added to cells. The final concentration of DMSO was maintained at 0.03% in both controls and treatments.
# Reporter gene expression was evaluated 48 hours after treatment of cells, β-galactosidase activity was measured using Gal Screen™ bioluminescent reporter gene assay system from Tropix (GSY1000). Fold induction activities were calculated by dividing relative light units (“RLU”) in ligand treated cells with RLU in DMSO treated cells. Luminescence was detected at room temperature using a Dynex MLX microtiter plate luminometer.
# Flanking both constructs are long terminal repeats, G418 and puromycin are selectable markers, CMV is the cytomegalovirus promoter, VBE is coding sequence for amino acids 26-546 from Bombyx mori EcR inserted downstream of the VP16 transactivation domain, 6×EcRE is six copies of the ecdysone response element, lacZ encodes for the reporter enzyme β-galactosidase.
# (§1) Each assay was conducted in two separate wells, and the two values were averaged. Fold inductions were calculated by dividing relative light units (“RLU”) in ligand treated cells with RLU in DMSO treated cells. EC50s were calculated from dose response data using a three-parameter logistic model.
# [2] = target: GAL4 DBD-CfEcR(DEF)/VP16AD-MmRXRE (Choristoneura fumiferana, UniProt O77240); test: 13B3 Assay (CHO stable cell line, luciferase reporter); conditions: for Fold Induction, 13B3 Assay, 33 uM: 33 uM ligand; for Fold Induction, 13B3 Assay, 33 uM / Fold Induction, 13B3 Assay, 3.3 uM: RLU ligand treated / RLU DMSO treated cells; for Fold Induction, 13B3 Assay, 33 uM / Fold Induction, 13B3 Assay, 3.3 uM / EC50: average of two wells; for Fold Induction, 13B3 Assay, 3.3 uM: 3.3 uM ligand; for 13B3 assay Rel Max FI: maximum fold induction at any concentration relative to that of GS-E ligand, CHO 13B3 cells; for EC50: read-out: 13B3 EC50, CHO 13B3 stable cell line, luciferase reporter, 48 h
# Description: GAL4 DBD-CfEcR(DEF)/VP16AD-MmRXRE:
# The wild-type D, E, and F domains from spruce budworm Choristoneura fumiferana EcR (“CfEcR-DEF”; SEQ ID NO: 1) were fused to a GALA DNA binding domain (“Gal4DBD1-147”; SEQ ID NO: 2) and placed under the control of the SV40e promoter of pM vector (PT3119-5, Clontech, Palo Alto, Calif.). The D and E domains from Mus Musculus RXR (“MmRXR-DE”; SEQ ID NO: 11) were fused to the transactivation domain from VP16 (“VP16AD”; SEQ ID NO: 6) and placed under the control of the SV40e promoter of the pVP16 vector (PT3127-5, Clontech, Palo Alto, Calif.).
# CHO cells were transiently transfected with transcription cassettes for GAL4 DBD-CJEcR(DEF) and for VP16AD-MmRXRE controlled by SV40e promoters. Stably transfected cells were selected using Hygromycin. Individually isolated CHO cell clones were transiently transfected with a GALA RE-luciferase reporter (pFR-Luc, Stratagene, La Jolla, Calif.). The 13B3 clone was selected using Zeocin.
# Cells were trypsinized and diluted to a concentration of 2.5×10^4 cells mL. 100 μL of cell suspension was placed in each well of a 96 well plate and incubated at 37° C. under 5% CO2 for 24 h. Ligand stock solutions were prepared in DMSO and diluted 300 fold for all treatments. Dose response testing consisted of 8 concentrations ranging from 33 μM to 0.01 μM.
# Luciferase reporter gene expression was measured 48 h after cell treatment using Bright-Glo™ Luciferase Assay System from Promega (E2650). Luminescence was detected at room temperature using a Dynex MLX microtiter plate luminometer.
# as §1
SMILES,"Fold Induction, Z3 Assay, 3.3 uM [1]","Fold Induction, Z3 Assay, 33 uM [1]",Z3 assay Rel Max FI [1],EC50 [1] [nM],"Fold Induction, 13B3 Assay, 33 uM [2]","Fold Induction, 13B3 Assay, 3.3 uM [2]",13B3 assay Rel Max FI [2],EC50 [2] [nM]
CC(=O)Oc1cccc(C(=O)NN(C(=O)c2cc(C)cc(C)c2)C(C)(C)C)c1C [RG-100749],874,145,0.951,2690,288,–,–,–
COc1cc(OC)cc(C(=O)N(NC(=O)c2cccc(C)c2C)C(C)(C)C)c1 [RG-100764],915,369,0.900,2340,3814,–,–,–
CCc1c(OC)cccc1C(=O)NN(C(=O)c1cc(OC)ccc1OC)C(C)(C)C [RG-100779],947,304,0.707,178,2979,–,–,–
CCc1c(OC)cccc1C(=O)NN(C(=O)c1ccc(F)cc1)C(C)(C)C [RG-100812],1587,399,0.954,912,202,–,–,–
CCc1ccc(C(=O)NN(C(=O)c2ccc(F)cc2)C(C)(C)C)c(F)c1 [RG-100901],1527,185,0.918,316,882,–,–,–
Cc1cc(C)cc(C(=O)N(NC(=O)c2cccc([N+](=O)[O-])c2C)C(C)(C)C)c1 [RG-100915],532,1292,0.912,1000,525,133,0.552,4450
CCc1ccccc1C(=O)N(NC(=O)c1cccc(OC)c1C)C(C)(C)C [RG-101062],1127,391,0.992,2570,319,–,–,–
COc1ccc(Cl)cc1C(=O)N(NC(=O)c1cccc(C)c1C)C(C)(C)C [RG-101178],1200,431,0.887,1320,699,–,–,–
Cc1c(Cl)cccc1C(=O)NN(C(=O)c1cccc(Cl)c1)C(C)(C)C [RG-101202],195,1,–,1740,7,5,0.007,369
Cc1cc(C)cc(C(=O)N(NC(=O)c2ccc3ncsc3c2)C(C)(C)C)c1 [RG-101312],600,292,0.955,5620,1874,–,–,–
Cc1c(C(=O)NN(C(=O)c2cc(Cl)cc(Cl)c2)C(C)(C)C)cccc1N(C)C [RG-101316],1045,350,0.896,1580,1280,–,–,–
COc1ccc(C(=O)NN(C(=O)c2cc(Cl)cc(Cl)c2)C(C)(C)C)cc1 [RG-101376],1293,415,0.777,537,7393,25656,0.654,1360
CCc1ccc(C(=O)NN(C(=O)c2cc(C)ccc2[N+](=O)[O-])C(C)(C)C)cc1 [RG-101398],1138,403,0.712,282,159,–,–,–
